Values of other authors as cited in patent US6384081B2, “Treatment of diseases of the eye characterized by the formation of metalloproteinase” (priority 1998, dated 2002).
Like-named read-outs stand apart in the source and are kept apart here. One block for each compound: values may come before it.

Assays:
[1] = test system: collagenase purified from culture medium of alkali-burned rabbit corneas
[2] = rabbit eye, 7 mg/kg intravenously
[3] = test system: collagenase
[4] = test system: TIMP
[5] = test system: epithelial healing in the rabbit alkali-burn model; settings: for mean percentage of epithelial defects: at 14 days

Compound: O=C([O-])CC(O)(CC(=O)[O-])C(=O)[O-].[Na+].[Na+].[Na+] [sodium citrate]
reversal of inhibition by excess Ca2+ ([1]; excess Ca2+): could be reversed by excess Ca2+

Compound: CC(C)CC(CS)C(=O)NC(Cc1ccccc1)C(=O)NC(C)C(N)=O (stereo not drawn) [HSCH2(DL)CH[CH2 CH(CH3)2]CO-Phe-Ala-NH2]
IC50 ([1]; synthetic substrate Dnp-Pro-Leu-Gly-Leu-Trp-Ala-D-Arg-NH2, read-out: 50% inhibition (IC50)): ~0.01 µM

Compound: CC(CN1CC(=O)NC(=O)C1)N1CC(=O)NC(=O)C1 (centres unmarked) [Razoxane]
collagenase production [3]: inhibited collagenase production
TIMP production [4]: stimulated TIMP production

Compound: CCCC(NC(CC(C)C)C(=O)NC(Cc1ccccc1)C(=O)NC(C)C(N)=O)C(=O)O (stereo not drawn) [CH3(CH2)2(DL)CH-(COOH)-Leu-Phe-Ala-NH2]
IC50 ([1]; substrate not stated, read-out: IC50): 25 µM

Compound: doxycycline hyclate
mean percentage of epithelial defects ([5]; 1.5 mg/kg orally daily for 14 days): 50.7%
mean percentage of epithelial defects ([5]; 5 mg/kg orally daily for 14 days): 7.1%
corneal reepithelialization ([5]; 5 mg/kg/day, systemically administered): promotes corneal reepithelialization

The remaining lines, values ahead:

inhibition of collagenase-mediated hydrolysis ([1]; either collagen or the synthetic substrate): did not inhibit
Compound: O=C1O[C@H]([C@@H](O)CO)C([O-])=C1O.[Na+] [Sodium ascorbate]

Doxycycline concentration in the cornea versus aqueous humor [2]: exceeded that in the aqueous humor
Vitreous body doxycycline concentration [2]: 0.3 microgram/g
penetrability into the tissues [2]: good penetrability
antibiotic concentration in all vascularized ocular structures ([2]; long-lasting): ≥ 1 microgram/g
Compound: C[C@H]1c2cccc(O)c2C(=O)C2=C(O)[C@]3(O)C(=O)C(C(N)=O)=C(O)[C@@H](N(C)C)[C@@H]3[C@@H](O)[C@@H]21 [doxycycline]

intraocular penetration (sub-conjunctival, retrobulbar and intramuscular, one shot, healthy rabbit eye): best results
Compound: CCC[C@@H]1C[C@@H](C(=O)N[C@@H]([C@H]2O[C@H](SC)[C@H](O)[C@@H](O)[C@H]2O)[C@H](C)Cl)N(C)C1 [clindamycin]

IC50 ([1]; natural substrate (collagen), read-out: IC50): < 10000 µM
IC50 ([1]; synthetic substrate, read-out: IC50): 2700 µM
Compound: CC(=O)N[C@@H](CS)C(=O)O [N-acetylcysteine]

intraocular penetration (rabbit, in vivo): best results
Compound: spiramycin
